Key:
[1] = molecular target: T1, panel of 255 (vepafestinib) or 256 (all other inhibitors) recombinant kinases (Homo sapiens, UniProt Q16288); assay: Kinase selectivity profiling at a single concentration (Carna Biosciences); format: biochemical; details: 17 nM
T1 construct: purchased Carna Biosciences

[2] = molecular target: T2, panel of 255 (vepafestinib) or 256 (all other inhibitors) recombinant kinases (Homo sapiens, UniProt Q16832); assay: as above; format: biochemical; details: 17 nM
T2 construct: purchased Carna Biosciences
T2 sequence (Q16832 22-855): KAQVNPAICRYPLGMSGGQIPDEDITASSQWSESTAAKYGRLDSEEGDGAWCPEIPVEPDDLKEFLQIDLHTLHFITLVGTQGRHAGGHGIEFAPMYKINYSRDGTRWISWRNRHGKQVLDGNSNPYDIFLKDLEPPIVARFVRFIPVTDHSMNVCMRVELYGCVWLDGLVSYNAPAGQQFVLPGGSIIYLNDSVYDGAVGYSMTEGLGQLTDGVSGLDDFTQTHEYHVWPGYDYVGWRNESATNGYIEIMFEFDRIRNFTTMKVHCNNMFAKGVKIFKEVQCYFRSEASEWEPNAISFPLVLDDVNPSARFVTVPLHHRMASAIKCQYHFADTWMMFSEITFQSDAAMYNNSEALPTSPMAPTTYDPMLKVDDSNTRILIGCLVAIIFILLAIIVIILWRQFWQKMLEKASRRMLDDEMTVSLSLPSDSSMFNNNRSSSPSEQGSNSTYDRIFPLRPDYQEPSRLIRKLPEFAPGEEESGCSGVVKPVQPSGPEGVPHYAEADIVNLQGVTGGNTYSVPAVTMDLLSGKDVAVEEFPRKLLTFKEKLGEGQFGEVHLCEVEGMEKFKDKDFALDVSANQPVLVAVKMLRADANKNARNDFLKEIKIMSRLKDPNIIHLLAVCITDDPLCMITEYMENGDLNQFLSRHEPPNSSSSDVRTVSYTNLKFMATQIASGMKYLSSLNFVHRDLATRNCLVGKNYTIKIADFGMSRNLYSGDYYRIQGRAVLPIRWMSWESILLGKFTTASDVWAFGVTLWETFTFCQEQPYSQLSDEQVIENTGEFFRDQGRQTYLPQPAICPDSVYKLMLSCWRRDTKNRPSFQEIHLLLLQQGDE

[3] = molecular target: T3, panel of 255 (vepafestinib) or 256 (all other inhibitors) recombinant kinases (Homo sapiens, UniProt P52333); assay: as above; format: biochemical; details: 17 nM
T3 construct: purchased Carna Biosciences
T3 sequence (P52333 whole entry): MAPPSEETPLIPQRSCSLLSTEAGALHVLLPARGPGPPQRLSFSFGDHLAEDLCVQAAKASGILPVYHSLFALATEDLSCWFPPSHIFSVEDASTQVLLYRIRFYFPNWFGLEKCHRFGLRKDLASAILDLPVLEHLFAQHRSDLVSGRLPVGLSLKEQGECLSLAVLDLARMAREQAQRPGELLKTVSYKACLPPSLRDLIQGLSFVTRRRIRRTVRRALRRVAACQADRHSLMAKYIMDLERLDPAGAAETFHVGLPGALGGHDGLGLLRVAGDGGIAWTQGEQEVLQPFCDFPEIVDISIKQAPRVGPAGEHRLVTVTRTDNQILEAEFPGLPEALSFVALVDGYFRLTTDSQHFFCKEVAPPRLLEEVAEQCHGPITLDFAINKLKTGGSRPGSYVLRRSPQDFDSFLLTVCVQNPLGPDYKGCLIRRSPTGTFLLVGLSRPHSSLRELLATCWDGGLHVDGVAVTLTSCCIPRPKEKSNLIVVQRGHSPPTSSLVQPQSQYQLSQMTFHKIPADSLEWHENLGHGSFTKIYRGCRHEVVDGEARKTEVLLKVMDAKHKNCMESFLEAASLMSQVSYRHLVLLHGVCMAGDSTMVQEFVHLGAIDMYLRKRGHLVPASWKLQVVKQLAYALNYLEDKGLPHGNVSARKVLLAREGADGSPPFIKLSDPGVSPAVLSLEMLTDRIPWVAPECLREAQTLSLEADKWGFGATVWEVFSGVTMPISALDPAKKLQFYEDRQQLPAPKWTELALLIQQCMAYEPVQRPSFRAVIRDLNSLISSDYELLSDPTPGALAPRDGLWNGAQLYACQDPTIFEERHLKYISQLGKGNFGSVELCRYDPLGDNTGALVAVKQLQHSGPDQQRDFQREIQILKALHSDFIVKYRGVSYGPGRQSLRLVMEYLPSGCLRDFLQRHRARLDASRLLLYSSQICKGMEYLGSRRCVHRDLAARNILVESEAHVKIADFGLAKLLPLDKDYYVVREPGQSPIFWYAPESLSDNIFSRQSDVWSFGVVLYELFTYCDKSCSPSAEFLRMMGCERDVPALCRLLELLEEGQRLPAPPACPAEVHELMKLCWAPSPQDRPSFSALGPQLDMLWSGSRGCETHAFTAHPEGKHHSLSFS

[4] = molecular target: T4, panel of 255 (vepafestinib) or 256 (all other inhibitors) recombinant kinases (Homo sapiens, UniProt P07947); assay: as above; format: biochemical; details: 17 nM
T4 construct: purchased Carna Biosciences

[5] = molecular target: T5, panel of 255 (vepafestinib) or 256 (all other inhibitors) recombinant kinases (Homo sapiens, UniProt P23458); assay: as above; format: biochemical; details: 17 nM
T5 construct: purchased Carna Biosciences

[6] = molecular target: T6, panel of 255 (vepafestinib) or 256 (all other inhibitors) recombinant kinases (Homo sapiens, UniProt P04629); assay: as above; format: biochemical; details: 17 nM
T6 construct: purchased Carna Biosciences

[7] = molecular target: T7, panel of 255 (vepafestinib) or 256 (all other inhibitors) recombinant kinases (Homo sapiens, UniProt P08922); assay: as above; format: biochemical; details: 17 nM
T7 construct: purchased Carna Biosciences

[8] = molecular target: T8, panel of 255 (vepafestinib) or 256 (all other inhibitors) recombinant kinases (Homo sapiens, UniProt P07333); assay: as above; format: biochemical; details: 17 nM
T8 construct: purchased Carna Biosciences

[9] = molecular target: T9, panel of 255 (vepafestinib) or 256 (all other inhibitors) recombinant kinases (Homo sapiens, UniProt P54762); assay: as above; format: biochemical; details: 22 nM
T9 construct: purchased Carna Biosciences

[10] = molecular target: T10, panel of 255 (vepafestinib) or 256 (all other inhibitors) recombinant kinases (Homo sapiens, UniProt Q9UF33); assay: as above; format: biochemical; details: 22 nM
T10 construct: purchased Carna Biosciences
T10 sequence (Q9UF33 23-1036): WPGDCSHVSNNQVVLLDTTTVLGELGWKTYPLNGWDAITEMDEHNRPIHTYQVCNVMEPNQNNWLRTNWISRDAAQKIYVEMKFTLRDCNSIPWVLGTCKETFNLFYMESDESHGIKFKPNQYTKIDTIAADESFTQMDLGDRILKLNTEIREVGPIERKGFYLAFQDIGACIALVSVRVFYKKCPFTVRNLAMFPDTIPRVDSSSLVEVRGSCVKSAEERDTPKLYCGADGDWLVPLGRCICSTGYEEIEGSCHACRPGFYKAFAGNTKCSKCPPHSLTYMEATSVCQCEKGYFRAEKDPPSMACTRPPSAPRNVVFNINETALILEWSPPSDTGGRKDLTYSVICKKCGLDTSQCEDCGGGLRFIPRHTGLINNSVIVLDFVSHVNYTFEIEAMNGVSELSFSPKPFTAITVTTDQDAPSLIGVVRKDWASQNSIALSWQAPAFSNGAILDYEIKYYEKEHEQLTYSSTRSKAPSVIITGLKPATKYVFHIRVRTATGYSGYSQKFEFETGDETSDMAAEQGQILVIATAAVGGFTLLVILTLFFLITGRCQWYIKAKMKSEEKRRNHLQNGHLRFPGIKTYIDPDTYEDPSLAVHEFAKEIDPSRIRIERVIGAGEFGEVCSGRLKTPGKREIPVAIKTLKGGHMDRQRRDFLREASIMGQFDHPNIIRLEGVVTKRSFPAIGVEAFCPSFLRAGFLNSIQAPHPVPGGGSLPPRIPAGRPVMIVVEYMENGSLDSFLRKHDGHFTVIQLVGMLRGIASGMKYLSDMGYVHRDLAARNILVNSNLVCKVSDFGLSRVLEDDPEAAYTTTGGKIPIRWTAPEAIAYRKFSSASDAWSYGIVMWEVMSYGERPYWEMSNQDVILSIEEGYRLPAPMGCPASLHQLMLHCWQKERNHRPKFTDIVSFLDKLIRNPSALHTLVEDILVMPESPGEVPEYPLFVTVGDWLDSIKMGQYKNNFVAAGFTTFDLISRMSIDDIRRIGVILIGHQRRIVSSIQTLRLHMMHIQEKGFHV

[11] = molecular target: T11, panel of 255 (vepafestinib) or 256 (all other inhibitors) recombinant kinases (Homo sapiens, UniProt Q92630); assay: as above; format: biochemical; details: 22 nM
T11 construct: purchased Carna Biosciences

[12] = molecular target: T12, panel of 255 (vepafestinib) or 256 (all other inhibitors) recombinant kinases (Homo sapiens, UniProt P30530); assay: as above; format: biochemical; details: 22 nM
T12 construct: purchased Carna Biosciences

[13] = molecular target: T13, panel of 255 (vepafestinib) or 256 (all other inhibitors) recombinant kinases (Homo sapiens, UniProt P41743); assay: as above; format: biochemical; details: 22 nM
T13 construct: purchased Carna Biosciences

[14] = molecular target: T14, panel of 255 (vepafestinib) or 256 (all other inhibitors) recombinant kinases (Homo sapiens, UniProt P24941); assay: as above; format: biochemical; details: 22 nM
T14 construct: purchased Carna Biosciences

LC-2/ad NSCLC xenograft = assay: Subcutaneous xenograft efficacy study; format: in vivo, BALB/c nude mice
[15] = molecular target: T15, panel of 255 (vepafestinib) or 256 (all other inhibitors) recombinant kinases (Homo sapiens, UniProt Q9NQU5); assay: Kinase selectivity profiling at a single concentration (Carna Biosciences); format: biochemical; details: 23 nM
T15 construct: purchased Carna Biosciences

[16] = molecular target: T16, panel of 255 (vepafestinib) or 256 (all other inhibitors) recombinant kinases (Homo sapiens, UniProt Q9P286); assay: as above; format: biochemical; details: 23 nM
T16 construct: purchased Carna Biosciences

[17] = molecular target: T17, panel of 255 (vepafestinib) or 256 (all other inhibitors) recombinant kinases (Homo sapiens, UniProt P17252); assay: as above; format: biochemical; details: 23 nM
T17 construct: purchased Carna Biosciences

[18] = molecular target: T18, panel of 255 (vepafestinib) or 256 (all other inhibitors) recombinant kinases (Homo sapiens, UniProt Q9P0L2); assay: as above; format: biochemical; details: 23 nM
T18 construct: purchased Carna Biosciences
T18 sequence (Q9P0L2 whole entry): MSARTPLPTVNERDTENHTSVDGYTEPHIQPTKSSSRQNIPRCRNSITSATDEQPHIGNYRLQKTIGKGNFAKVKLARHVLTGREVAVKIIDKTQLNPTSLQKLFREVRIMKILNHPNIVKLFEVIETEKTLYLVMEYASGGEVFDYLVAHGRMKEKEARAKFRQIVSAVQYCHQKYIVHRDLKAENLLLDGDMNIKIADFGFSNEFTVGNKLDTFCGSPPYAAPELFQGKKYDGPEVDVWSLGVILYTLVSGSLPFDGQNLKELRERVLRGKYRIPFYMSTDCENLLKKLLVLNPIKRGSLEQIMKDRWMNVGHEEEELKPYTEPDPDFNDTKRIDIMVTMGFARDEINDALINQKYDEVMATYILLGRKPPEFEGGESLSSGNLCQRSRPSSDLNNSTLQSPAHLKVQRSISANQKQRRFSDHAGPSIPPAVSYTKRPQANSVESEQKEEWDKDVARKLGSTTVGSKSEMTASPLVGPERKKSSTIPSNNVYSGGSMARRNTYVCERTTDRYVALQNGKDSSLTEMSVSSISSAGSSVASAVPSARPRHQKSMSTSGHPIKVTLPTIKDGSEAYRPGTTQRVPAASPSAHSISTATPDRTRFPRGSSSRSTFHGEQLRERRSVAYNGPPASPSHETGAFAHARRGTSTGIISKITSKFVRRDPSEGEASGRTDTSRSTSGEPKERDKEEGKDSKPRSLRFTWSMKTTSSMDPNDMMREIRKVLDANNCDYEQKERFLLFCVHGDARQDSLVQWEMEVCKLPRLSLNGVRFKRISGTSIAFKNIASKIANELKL

[19] = molecular target: T19, panel of 255 (vepafestinib) or 256 (all other inhibitors) recombinant kinases (Homo sapiens, UniProt P07948); assay: as above; format: biochemical; details: 23 nM
T19 construct: purchased Carna Biosciences

[20] = molecular target: T20, panel of 255 (vepafestinib) or 256 (all other inhibitors) recombinant kinases (Homo sapiens, UniProt Q15759); assay: as above; format: biochemical; details: 23 nM
T20 construct: purchased Carna Biosciences

[21] = molecular target: T21, panel of 255 (vepafestinib) or 256 (all other inhibitors) recombinant kinases (Homo sapiens, UniProt Q15303); assay: as above; format: biochemical; details: 23 nM
T21 construct: purchased Carna Biosciences

[22] = molecular target: T22, panel of 255 (vepafestinib) or 256 (all other inhibitors) recombinant kinases (Homo sapiens, UniProt Q7KZI7); assay: as above; format: biochemical; details: 23 nM
T22 construct: purchased Carna Biosciences

[23] = molecular target: T23, panel of 255 (vepafestinib) or 256 (all other inhibitors) recombinant kinases (Homo sapiens, UniProt P42684); assay: as above; format: biochemical; details: 23 nM
T23 construct: purchased Carna Biosciences

[24] = molecular target: T24, panel of 255 (vepafestinib) or 256 (all other inhibitors) recombinant kinases (Homo sapiens, UniProt Q9Y6E0); assay: as above; format: biochemical; details: 23 nM
T24 construct: purchased Carna Biosciences
T24 sequence (Q9Y6E0 whole entry): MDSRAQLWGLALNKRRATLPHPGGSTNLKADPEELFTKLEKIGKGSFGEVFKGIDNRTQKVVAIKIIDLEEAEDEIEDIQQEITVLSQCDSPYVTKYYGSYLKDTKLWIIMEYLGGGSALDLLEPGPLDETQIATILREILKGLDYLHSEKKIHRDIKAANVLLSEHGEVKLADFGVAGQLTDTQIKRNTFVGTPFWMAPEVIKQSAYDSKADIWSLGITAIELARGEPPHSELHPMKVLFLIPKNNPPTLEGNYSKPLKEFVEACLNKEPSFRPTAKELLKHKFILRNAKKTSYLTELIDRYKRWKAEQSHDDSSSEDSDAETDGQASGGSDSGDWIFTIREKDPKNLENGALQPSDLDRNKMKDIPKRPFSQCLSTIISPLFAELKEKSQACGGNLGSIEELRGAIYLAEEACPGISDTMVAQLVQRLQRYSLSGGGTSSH

[25] = molecular target: T25, panel of 255 (vepafestinib) or 256 (all other inhibitors) recombinant kinases (Homo sapiens, UniProt P29376); assay: as above; format: biochemical; details: 23 nM
T25 construct: purchased Carna Biosciences
T25 sequence (P29376 17-864): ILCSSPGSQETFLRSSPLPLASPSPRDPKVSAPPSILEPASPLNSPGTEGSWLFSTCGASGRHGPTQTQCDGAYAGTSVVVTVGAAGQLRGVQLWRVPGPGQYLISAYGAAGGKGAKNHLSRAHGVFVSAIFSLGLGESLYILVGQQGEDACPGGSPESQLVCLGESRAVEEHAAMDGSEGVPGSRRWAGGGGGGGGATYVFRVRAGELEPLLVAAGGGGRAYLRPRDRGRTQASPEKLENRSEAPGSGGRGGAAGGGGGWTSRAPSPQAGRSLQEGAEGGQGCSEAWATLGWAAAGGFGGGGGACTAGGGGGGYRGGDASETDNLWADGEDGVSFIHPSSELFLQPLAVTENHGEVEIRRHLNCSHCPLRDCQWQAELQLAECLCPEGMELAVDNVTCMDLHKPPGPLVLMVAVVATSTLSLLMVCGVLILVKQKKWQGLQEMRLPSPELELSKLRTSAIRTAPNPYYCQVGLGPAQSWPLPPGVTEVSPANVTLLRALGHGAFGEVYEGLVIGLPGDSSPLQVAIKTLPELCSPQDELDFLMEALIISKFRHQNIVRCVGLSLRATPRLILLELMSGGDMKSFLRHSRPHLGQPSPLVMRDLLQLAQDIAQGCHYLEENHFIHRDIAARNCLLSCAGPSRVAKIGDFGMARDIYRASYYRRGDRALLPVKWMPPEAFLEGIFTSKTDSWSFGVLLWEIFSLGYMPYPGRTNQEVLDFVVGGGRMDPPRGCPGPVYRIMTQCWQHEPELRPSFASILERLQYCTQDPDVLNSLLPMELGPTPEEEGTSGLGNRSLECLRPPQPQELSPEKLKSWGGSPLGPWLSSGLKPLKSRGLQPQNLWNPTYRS

[26] = tested on: RET^G810R phosphorylation in Ba/F3 KIF5B–RET^G810R allograft tumors; assay: Western blotting of tumors 1 h after dosing (target engagement); format: in vivo, mice; details: 10 mg per kg and 30 mg per kg

In the case of `CO[C@]1(C(=O)N[C@@H](C)c2ccc(-n3cc(F)cn3)nc2)CC[C@H](c2nc(C)cc(Nc3cc(C)[nH]n3)n2)CC1` [Pralsetinib], the “% Inhibiton TRKC” value [1] is reported as 57.7%, the “% Inhibiton DDR2” value [2] is reported as 72.5% and the “% Inhibiton JAK3” value [3] is reported as 72.3%. The “% Inhibiton YES” value [4] was 37.6%, the “% Inhibiton JAK1” value [5] was 89.1% and the “% Inhibiton TRKA” value [6] was 40.8%. For the same compound, the “% Inhibiton ROS” value [7] was 40% and the “% Inhibiton FMS” value [8] was 25.5%.

With `COc1ccc(CN2C3CC2CN(c2ccc(-c4cc(OCC(C)(C)O)cn5ncc(C#N)c45)cn2)C3)cn1` [Selpercatinib] the “% Inhibiton EPHB1” value [9] was 36.2%, the “% Inhibiton EPHA6” value [10] was 17.3% and the “% Inhibiton DYRK2” value [11] was 17.3%. For the same compound, the “% Inhibiton AXL” value [12] was 18.1%, the “% Inhibiton PKCι” value [13] was 12.7% and the “% Inhibiton CDK2/CycA2” value [14] was 17.9%.

For `COCc1ccc(NC(=O)c2c(C#CCN3CCOCC3)n(C3(C)CC3)c3ncnc(N)c23)cc1` [Vepafestinib, 4-amino-N-[4-(methoxymethyl)phenyl]-7-(1-methylcyclopropyl)-6-[3-(morpholin-4-yl)prop-1-yn-1-yl]-7H-pyrrolo[2,3-d]pyrimidine-5-carboxamide], the “Tumor Volume (mm3) Mean” value (LC-2/ad NSCLC xenograft; 25 mg/kg BID, day 0) was 143.372 mm3, the “Tumor Volume (mm3) Mean” value (LC-2/ad NSCLC xenograft; 25 mg/kg BID, day 4) was 128.076 mm3 and the “Tumor Volume (mm3) Mean” value (LC-2/ad NSCLC xenograft; 25 mg/kg BID, day 8) was 127.413 mm3. The “Tumor Volume (mm3) Mean” value (LC-2/ad NSCLC xenograft; 25 mg/kg BID, day 11) was 123.160 mm3, the “Tumor Volume (mm3) Mean” value (LC-2/ad NSCLC xenograft; 25 mg/kg BID, day 15) was 151.811 mm3 and the “Tumor Volume (mm3) Mean” value (LC-2/ad NSCLC xenograft; 50 mg/kg BID, day 0) was 140.580 mm3. The “Tumor Volume (mm3) Mean” value (LC-2/ad NSCLC xenograft; 50 mg/kg BID, day 4) was 117.460 mm3, the “Tumor Volume (mm3) Mean” value (LC-2/ad NSCLC xenograft; 50 mg/kg BID, day 8) was 119.902 mm3 and the “Tumor Volume (mm3) Mean” value (LC-2/ad NSCLC xenograft; 50 mg/kg BID, day 11) was 105.200 mm3. For the same compound, the “Tumor Volume (mm3) Mean” value (LC-2/ad NSCLC xenograft; 50 mg/kg BID, day 15) was 98.169 mm3, the “Tumor Volume (mm3) Mean” value (LC-2/ad NSCLC xenograft; 50 mg/kg QD, day 0) was 140.683 mm3 and the “Tumor Volume (mm3) Mean” value (LC-2/ad NSCLC xenograft; 50 mg/kg QD, day 4) was 139.893 mm3. For the same compound, the “Tumor Volume (mm3) Mean” value (LC-2/ad NSCLC xenograft; 50 mg/kg QD, day 8) was 112.730 mm3, the “Tumor Volume (mm3) Mean” value (LC-2/ad NSCLC xenograft; 50 mg/kg QD, day 11) was 118.521 mm3 and the “Tumor Volume (mm3) Mean” value (LC-2/ad NSCLC xenograft; 50 mg/kg QD, day 15) was 131.887 mm3. The “% Inhibiton PAK6” value [15] was 7.4%, the “% Inhibiton PAK5” value [16] was 10.8% and the “% Inhibiton PKCα” value [17] was 9.1%. The “% Inhibiton MARK1” value [18] was 6.5%, the “% Inhibiton LYNa” value [19] was 6.7% and the “% Inhibiton p38β” value [20] was 7%. The “% Inhibiton HER4” value [21] was 9.5%, the “% Inhibiton MARK2” value [22] was 14.1% and the “% Inhibiton ARG” value [23] was 7.3%. The “% Inhibiton MST3” value [24] was 13.4%, the “% Inhibiton LTK” value [25] was 11.3% and the “inhibition of RET^G810R phosphorylation in tumors” value [26] was “completely inhibited”.
